Measured values: US10123540B1, “Disinfectant material” (PEN Inc., priority 2014, dated 2018)

Tests used:
[1] = test system: feline calcivirus ATCC VR-782; experiment: Antiviral surface test, Modified ASTM E1053, limited to 10 minutes; conditions: 20 mg/L in a water based solution applied to a surface; 10 minutes exposure; non-enveloped virus
Protocol: Copper ions (20 mg/L) in a water based solution were applied to a surface with the non-enveloped feline calcivirus ATCC VR-782. […] In our case we wanted to have an idea about the rate of killing and this is why we limited the test to 10 minutes.

[2] = test system: H1N1 Influenza A, Strain A-California; experiment: Towelette antiviral test, modified AATCC 100; conditions: towelettes embedded with water based solution at 20 mg/L
Protocol: A number of other tests were performed against H1N1 Influenza A, Strain A-California, and Human Corona Virus 229E.

Human Corona Virus 229E = conditions: 10 minutes

Row | Molecule | reduction relative to the control [1] [%] | reduction vs time zero control [2] [%] | percent reduction (Human Corona Virus 229E) [%]
1 | [Cu+2] [Copper ions] | 82.22 |  | 
2 | copper iodide |  | 99.7 | 99.99
